# Test results as given in ChEMBL document CHEMBL1154622, “Structure-guided design of potent and selective pyrimidylpyrrole inhibitors of extracellular signal-regulated kinase (ERK) using conformational control” (J Med Chem, 2009).
# What was measured:
# [1] = biological target: Dual specificity mitogen-activated protein kinase kinase 6 (Homo sapiens) (UniProt P52564); assay: Inhibition of MKK6 at 2 uM
# [2] = biological target: Mitogen-activated protein kinase 8 (Homo sapiens) (UniProt P45983); assay: Inhibition of JNK1 at 2 uM
# [3] = biological target: Fibroblast growth factor receptor 4 (Homo sapiens) (UniProt P22455); assay: Inhibition of FGFR4 at 1 uM
# [4] = biological target: Inhibitor of nuclear factor kappa-B kinase subunit epsilon (Homo sapiens, UniProt Q14164); assay: Inhibition of IKKi
# Chain of Inhibitor of nuclear factor kappa-B kinase subunit epsilon (Q14164 whole entry): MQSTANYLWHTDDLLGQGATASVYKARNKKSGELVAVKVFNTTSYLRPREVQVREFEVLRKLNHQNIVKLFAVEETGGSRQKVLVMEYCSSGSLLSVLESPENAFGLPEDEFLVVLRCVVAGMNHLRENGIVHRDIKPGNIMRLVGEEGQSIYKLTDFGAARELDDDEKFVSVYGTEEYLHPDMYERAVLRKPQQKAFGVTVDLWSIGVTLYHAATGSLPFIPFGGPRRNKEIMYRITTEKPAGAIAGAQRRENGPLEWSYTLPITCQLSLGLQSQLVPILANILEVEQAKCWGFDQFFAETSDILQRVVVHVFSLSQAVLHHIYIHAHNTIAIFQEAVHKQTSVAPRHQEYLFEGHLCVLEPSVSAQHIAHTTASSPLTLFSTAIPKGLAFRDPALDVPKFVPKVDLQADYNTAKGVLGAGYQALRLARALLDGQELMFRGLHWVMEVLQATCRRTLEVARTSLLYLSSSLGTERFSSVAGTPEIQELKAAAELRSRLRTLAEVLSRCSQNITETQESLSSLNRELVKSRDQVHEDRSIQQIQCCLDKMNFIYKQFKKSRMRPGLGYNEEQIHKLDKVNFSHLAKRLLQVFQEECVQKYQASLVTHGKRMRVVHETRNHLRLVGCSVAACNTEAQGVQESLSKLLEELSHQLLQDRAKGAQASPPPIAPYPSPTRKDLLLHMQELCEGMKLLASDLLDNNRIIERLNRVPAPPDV
# [5] = Half life in mouse at 33 mg/kg, po; assay type: ADME, organism-based; design: dose 33 mg/kg, route oral; settings: in vivo
# [6] = Volume of distribution at steady state in rat at 3 mg/kg, iv; assay type: ADME, organism-based; design: dose 3 mg/kg, route intravenous; settings: in vivo, read-out: Vdss
# [7] = biological target: Mitogen-activated protein kinase 12 (Homo sapiens) (UniProt P53778); assay: Inhibition of P38gamma at 2 uM
# [8] = Plasma concentration in mouse at 5 mg/kg, iv after 4 hrs; assay type: ADME, organism-based; design: dose 5 mg/kg, route intravenous
# [9] = biological target: Dual specificity mitogen-activated protein kinase kinase 7 (Homo sapiens) (UniProt O14733); assay: Inhibition of MKK7 at 2 uM
# Chain of Dual specificity mitogen-activated protein kinase kinase 7 (Homo sapiens) (O14733 whole entry): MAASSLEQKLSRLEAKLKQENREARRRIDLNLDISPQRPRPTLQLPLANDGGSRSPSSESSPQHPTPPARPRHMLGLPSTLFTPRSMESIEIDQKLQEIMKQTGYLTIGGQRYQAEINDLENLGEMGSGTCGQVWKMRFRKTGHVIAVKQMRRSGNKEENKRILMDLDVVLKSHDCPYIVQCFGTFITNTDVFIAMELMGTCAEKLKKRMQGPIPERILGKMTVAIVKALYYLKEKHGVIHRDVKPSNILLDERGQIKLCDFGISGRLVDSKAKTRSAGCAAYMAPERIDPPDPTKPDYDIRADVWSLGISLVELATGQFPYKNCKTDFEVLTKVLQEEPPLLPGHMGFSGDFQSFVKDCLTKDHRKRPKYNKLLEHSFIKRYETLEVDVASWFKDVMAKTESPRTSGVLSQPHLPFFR
# [10] = biological target: Tyrosine-protein kinase Mer (Homo sapiens) (UniProt Q12866); assay: Inhibition of MER at 1 uM
# [11] = biological target: Casein kinase I isoform alpha (Homo sapiens) (UniProt P48729); assay: Inhibition of CK1 at 2 uM
# [12] = biological target: Mitogen-activated protein kinase 10 (Homo sapiens, UniProt P53779); assay: Inhibition of JNK3
# [13] = biological target: Fibroblast growth factor receptor 1 (Homo sapiens) (UniProt P11362); assay: Inhibition of FGFR1 at 1 uM
# [14] = biological target: Serine/threonine-protein kinase 4 (Homo sapiens) (UniProt Q13043); assay: Inhibition of MST1 at 1 uM
# [15] = biological target: Mitogen-activated protein kinase kinase kinase 10 (Homo sapiens, UniProt Q02779); assay: Inhibition of MLK2
# [16] = biological target: Ribosomal protein S6 kinase beta-1 (Homo sapiens) (UniProt P23443); assay: Inhibition of P70S6K at 2 uM
# [17] = biological target: Protein kinase C eta type (Homo sapiens) (UniProt P24723); assay: Inhibition of PKCeta at 1 uM
# [18] = biological target: Tyrosine-protein kinase HCK (Homo sapiens) (UniProt P08631); assay: Inhibition of HCK at 1 uM
# [19] = biological target: Mitogen-activated protein kinase kinase kinase 8 (Homo sapiens, UniProt P41279); assay: Inhibition of COT
# [20] = biological target: Mitogen-activated protein kinase kinase kinase kinase 4 (Homo sapiens) (UniProt O95819); assay: Inhibition of MAP4K4 at 1 uM
# [21] = biological target: Ephrin type-B receptor 4 (Homo sapiens) (UniProt P54760); assay: Inhibition of EPH-B4 at 1 uM
# Chain of Ephrin type-B receptor 4 (Homo sapiens) (P54760 whole entry): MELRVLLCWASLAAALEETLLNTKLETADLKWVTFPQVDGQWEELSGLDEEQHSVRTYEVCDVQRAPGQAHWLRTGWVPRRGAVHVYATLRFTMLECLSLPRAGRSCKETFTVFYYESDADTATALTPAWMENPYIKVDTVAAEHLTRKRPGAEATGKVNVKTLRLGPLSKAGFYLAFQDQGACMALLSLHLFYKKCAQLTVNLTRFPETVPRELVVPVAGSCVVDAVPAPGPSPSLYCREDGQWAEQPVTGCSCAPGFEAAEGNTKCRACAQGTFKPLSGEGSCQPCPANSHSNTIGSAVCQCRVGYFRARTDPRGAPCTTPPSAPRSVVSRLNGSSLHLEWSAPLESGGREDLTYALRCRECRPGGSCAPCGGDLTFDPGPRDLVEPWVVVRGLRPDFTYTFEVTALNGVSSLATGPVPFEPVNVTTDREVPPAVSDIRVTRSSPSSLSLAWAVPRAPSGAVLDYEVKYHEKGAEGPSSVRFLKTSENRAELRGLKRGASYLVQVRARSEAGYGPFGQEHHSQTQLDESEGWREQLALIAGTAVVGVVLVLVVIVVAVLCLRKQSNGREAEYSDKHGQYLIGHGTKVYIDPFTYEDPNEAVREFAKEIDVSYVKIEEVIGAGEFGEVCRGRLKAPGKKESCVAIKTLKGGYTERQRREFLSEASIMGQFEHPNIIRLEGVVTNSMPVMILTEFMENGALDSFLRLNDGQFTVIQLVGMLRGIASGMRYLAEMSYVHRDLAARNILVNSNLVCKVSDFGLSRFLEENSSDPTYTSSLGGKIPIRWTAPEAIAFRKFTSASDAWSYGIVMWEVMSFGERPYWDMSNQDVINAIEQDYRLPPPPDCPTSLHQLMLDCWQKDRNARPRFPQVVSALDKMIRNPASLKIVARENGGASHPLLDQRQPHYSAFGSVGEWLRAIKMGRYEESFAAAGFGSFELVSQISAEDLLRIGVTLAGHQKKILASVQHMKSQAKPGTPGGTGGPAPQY
# [22] = biological target: Mast/stem cell growth factor receptor Kit (Homo sapiens) (UniProt P10721); assay: Inhibition of KIT at 1 uM
# [23] = biological target: cAMP-dependent protein kinase catalytic subunit PRKX (Homo sapiens) (UniProt P51817); assay: Inhibition of PRKX at 1 uM
# Chain of cAMP-dependent protein kinase catalytic subunit PRKX (Homo sapiens) (P51817 whole entry): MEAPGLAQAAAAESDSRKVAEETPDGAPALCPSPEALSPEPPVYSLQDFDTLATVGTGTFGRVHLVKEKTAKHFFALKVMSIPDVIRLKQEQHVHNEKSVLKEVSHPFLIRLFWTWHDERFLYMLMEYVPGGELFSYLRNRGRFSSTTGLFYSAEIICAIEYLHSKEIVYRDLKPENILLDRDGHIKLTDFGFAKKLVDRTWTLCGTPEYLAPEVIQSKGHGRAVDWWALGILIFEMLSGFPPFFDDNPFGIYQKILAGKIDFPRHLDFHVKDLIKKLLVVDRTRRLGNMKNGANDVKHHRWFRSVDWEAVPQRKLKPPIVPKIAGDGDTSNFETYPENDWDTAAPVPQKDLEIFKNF
# [24] = biological target: Serine/threonine-protein kinase D3 (Homo sapiens) (UniProt O94806); assay: Inhibition of PRKD3 at 1 uM
# [25] = Distribution coefficient, log D of the compound; assay type: physicochemical; settings: octanol/water
# [26] = biological target: Serine/threonine-protein kinase PLK1 (Homo sapiens, UniProt P53350); assay: Inhibition of PLK1
# [27] = Solubility in pH 7.4 buffer; assay type: physicochemical
# [28] = biological target: Proto-oncogene tyrosine-protein kinase receptor Ret (Homo sapiens) (UniProt P07949); assay: Inhibition of RET at 1 uM
# Chain of Proto-oncogene tyrosine-protein kinase receptor Ret (Homo sapiens) (P07949 whole entry): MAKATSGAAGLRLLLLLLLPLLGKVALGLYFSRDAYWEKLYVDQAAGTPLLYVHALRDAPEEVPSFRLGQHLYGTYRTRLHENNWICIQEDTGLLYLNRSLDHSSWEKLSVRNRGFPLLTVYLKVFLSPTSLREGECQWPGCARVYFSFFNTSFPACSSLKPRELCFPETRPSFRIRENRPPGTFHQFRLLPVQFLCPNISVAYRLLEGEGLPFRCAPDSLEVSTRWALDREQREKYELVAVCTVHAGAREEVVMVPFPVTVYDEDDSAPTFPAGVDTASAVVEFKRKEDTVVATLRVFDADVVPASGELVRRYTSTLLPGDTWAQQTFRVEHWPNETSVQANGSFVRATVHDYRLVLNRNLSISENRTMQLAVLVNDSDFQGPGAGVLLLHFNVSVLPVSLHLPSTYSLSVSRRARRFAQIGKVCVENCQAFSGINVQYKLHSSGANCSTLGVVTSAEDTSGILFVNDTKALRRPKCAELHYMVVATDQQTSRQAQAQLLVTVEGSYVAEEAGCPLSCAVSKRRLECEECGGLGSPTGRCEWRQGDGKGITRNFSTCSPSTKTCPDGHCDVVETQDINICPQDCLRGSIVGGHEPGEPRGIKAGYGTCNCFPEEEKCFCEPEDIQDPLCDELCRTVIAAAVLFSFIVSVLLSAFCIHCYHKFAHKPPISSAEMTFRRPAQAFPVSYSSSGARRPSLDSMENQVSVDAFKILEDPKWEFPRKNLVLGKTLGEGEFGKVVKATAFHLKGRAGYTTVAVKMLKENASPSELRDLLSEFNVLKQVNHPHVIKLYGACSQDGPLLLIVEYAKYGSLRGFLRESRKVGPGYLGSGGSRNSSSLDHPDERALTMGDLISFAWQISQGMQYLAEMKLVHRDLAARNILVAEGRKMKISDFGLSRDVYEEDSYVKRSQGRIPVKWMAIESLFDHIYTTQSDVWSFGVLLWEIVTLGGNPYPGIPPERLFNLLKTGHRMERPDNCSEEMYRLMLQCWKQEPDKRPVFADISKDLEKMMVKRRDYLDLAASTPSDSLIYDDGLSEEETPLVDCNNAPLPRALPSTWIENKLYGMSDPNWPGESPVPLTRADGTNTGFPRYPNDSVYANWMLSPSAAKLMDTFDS
# [29] = biological target: Serine/threonine-protein kinase D2 (Homo sapiens) (UniProt Q9BZL6); assay: Inhibition of PRKD2 at 1 uM
# [30] = biological target: Tyrosine-protein kinase Fyn (Homo sapiens) (UniProt P06241); assay: Inhibition of FYN at 2 uM
# [31] = biological target: 5'-AMP-activated protein kinase catalytic subunit alpha-2 (Homo sapiens) (UniProt P54646); assay: Inhibition of AMPK at 2 uM
# [32] = biological target: MAP kinase-activated protein kinase 3 (Homo sapiens) (UniProt Q16644); assay: Inhibition of MAPKAPK3 at 1 uM
# Chain of MAP kinase-activated protein kinase 3 (Homo sapiens) (Q16644 whole entry, looked up): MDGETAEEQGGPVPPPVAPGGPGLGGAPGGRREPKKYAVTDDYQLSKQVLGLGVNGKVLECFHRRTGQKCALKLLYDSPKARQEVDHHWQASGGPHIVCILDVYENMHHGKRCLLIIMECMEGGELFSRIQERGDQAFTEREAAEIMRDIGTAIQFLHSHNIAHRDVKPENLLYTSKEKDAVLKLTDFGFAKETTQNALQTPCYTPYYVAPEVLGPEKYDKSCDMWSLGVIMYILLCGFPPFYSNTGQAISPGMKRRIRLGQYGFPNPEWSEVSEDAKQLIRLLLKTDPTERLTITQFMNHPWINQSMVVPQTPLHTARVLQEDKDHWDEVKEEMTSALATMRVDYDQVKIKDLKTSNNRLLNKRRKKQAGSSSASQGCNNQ
# [33] = biological target: Calcium/calmodulin-dependent protein kinase type IV (Homo sapiens) (UniProt Q16566); assay: Inhibition of CAMK4 at 2 uM
# [34] = Clearance in mouse at 5 mg/kg, iv; assay type: ADME, organism-based; design: dose 5 mg/kg, route intravenous; settings: in vivo
# HT-29 = assay: Antiproliferative activity against human HT-29 cells; assay type: functional, cell-based
# [35] = biological target: Serine/threonine-protein kinase Nek2 (Homo sapiens) (UniProt P51955); assay: Inhibition of NEK2 at 1 uM
# [36] = Inhibition of GSK3
# [37] = biological target: RAC-gamma serine/threonine-protein kinase (Homo sapiens, UniProt Q9Y243); assay: Inhibition of AKT3 at 1 uM
# Chain of RAC-gamma serine/threonine-protein kinase (Q9Y243 whole entry): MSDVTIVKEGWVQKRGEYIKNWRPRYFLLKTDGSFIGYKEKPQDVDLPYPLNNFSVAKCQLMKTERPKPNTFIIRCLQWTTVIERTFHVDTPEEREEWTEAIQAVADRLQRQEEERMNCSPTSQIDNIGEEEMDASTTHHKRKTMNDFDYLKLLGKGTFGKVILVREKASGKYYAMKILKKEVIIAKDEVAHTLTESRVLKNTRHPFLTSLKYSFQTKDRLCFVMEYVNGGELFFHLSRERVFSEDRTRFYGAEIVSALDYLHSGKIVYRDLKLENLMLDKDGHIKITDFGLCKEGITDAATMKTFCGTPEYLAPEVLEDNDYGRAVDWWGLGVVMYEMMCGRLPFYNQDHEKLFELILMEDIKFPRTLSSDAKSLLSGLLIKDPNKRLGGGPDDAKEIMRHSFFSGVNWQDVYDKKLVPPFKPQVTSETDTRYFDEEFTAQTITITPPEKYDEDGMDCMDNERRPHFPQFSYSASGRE
# [38] = biological target: Serine/threonine-protein kinase N2 (Homo sapiens) (UniProt Q16513); assay: Inhibition of PRK2 at 2 uM
# [39] = biological target: Serine/threonine-protein kinase Nek1 (Homo sapiens) (UniProt Q96PY6); assay: Inhibition of NEK1 at 1 uM
# [40] = biological target: Vascular endothelial growth factor receptor 1 (Homo sapiens) (UniProt P17948); assay: Inhibition of FLT-1 at 1 uM
# [41] = AUC (0 to 8 hrs) in mouse at 5 mg/kg, iv; assay type: ADME, organism-based; design: time < 8 hr, dose 5 mg/kg, route intravenous; settings: plasma
# [42] = biological target: Mitogen-activated protein kinase 9 (Homo sapiens) (UniProt P45984); assay: Inhibition of JNK2 at 2 uM
# [43] = biological target: Macrophage colony-stimulating factor 1 receptor (Homo sapiens) (UniProt P07333); assay: Inhibition of FMS at 1 uM
# [44] = biological target: Tyrosine-protein kinase Blk (Homo sapiens) (UniProt P51451); assay: Inhibition of BLK at 2 uM
# Chain of Tyrosine-protein kinase Blk (Homo sapiens) (P51451 2-505 limits assumed): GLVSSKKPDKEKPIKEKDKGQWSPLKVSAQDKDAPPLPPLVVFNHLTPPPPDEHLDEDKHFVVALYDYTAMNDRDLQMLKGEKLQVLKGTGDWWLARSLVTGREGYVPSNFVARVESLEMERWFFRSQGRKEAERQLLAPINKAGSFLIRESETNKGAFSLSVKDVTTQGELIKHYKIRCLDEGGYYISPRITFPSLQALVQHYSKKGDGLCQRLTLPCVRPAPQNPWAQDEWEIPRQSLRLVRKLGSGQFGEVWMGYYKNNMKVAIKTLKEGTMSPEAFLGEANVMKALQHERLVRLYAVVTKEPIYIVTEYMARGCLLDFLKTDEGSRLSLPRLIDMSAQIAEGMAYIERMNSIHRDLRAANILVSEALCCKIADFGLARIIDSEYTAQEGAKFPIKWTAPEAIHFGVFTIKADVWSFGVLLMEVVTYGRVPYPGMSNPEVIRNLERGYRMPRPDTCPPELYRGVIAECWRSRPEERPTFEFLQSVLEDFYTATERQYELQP
# [45] = biological target: Fibroblast growth factor receptor 2 (Homo sapiens) (UniProt P21802); assay: Inhibition of FGFR2 at 1 uM
# Focal adhesion kinase 1 = Focal adhesion kinase 1 (Homo sapiens, UniProt Q05397); assay: Inhibition of FAK
# [46] = biological target: Serine/threonine-protein kinase MARK2 (Homo sapiens) (UniProt Q7KZI7); assay: Inhibition of PAR-1Balpha at 1 uM
# [47] = biological target: Inhibitor of nuclear factor kappa-B kinase subunit beta (Homo sapiens) (UniProt O14920); settings: 2 uM
# Description: Inhibition of IKK-beta at 2 uM
smiles,measurement,setting,value
Cc1cnc(Nc2ccc(F)cc2Cl)nc1-c1c[nH]c(C(=O)N[C@H](CO)c2cccc(Cl)c2)c1,inhibition,[1],9%
same,inhibition,[2],34%
same,inhibition,[3],0.3%
same,Ki,[4],> 5 µM
same,half-life,[5],264 min
same,Vd,[6],4.9 L/kg
same,inhibition,[7],56%
same,concentration at 4 h,[8],79 ng/mL
same,inhibition,[9],6%
same,inhibition,[10],9%
same,inhibition,[11],25%
same,Ki,[12],1400 nM
same,inhibition,[13],3%
same,inhibition,[14],4%
same,Ki,[15],> 10 µM
same,inhibition,[16],18%
same,inhibition,[17],2%
same,inhibition,[18],3%
same,Ki,[19],> 4 µM
same,inhibition,[20],18%
same,inhibition,[21],0%
same,inhibition,[22],8%
same,inhibition,[23],3%
same,inhibition,[24],21%
same,logD,[25],4.3
same,Ki,[26],> 4 µM
same,solubility,[27],10 µM
same,inhibition,[28],3%
same,inhibition,[29],50%
same,inhibition,[30],11%
same,inhibition,[31],5%
same,inhibition,[32],5%
same,inhibition,[33],0%
same,clearance,[34],55 mL/min/kg
same,IC50,HT-29,48 nM
same,inhibition,[35],3%
same,Ki,[36],395 nM
same,inhibition,[37],0%
same,inhibition,[38],14%
same,inhibition,[39],6%
same,inhibition,[40],0%
same,AUC(0-t) at 8 h,[41],1600 ng·h/mL
same,inhibition,[42],43%
same,inhibition,[43],6%
same,inhibition,[44],7%
same,inhibition,[45],12%
same,Ki,Focal adhesion kinase 1,> 10 µM
same,inhibition,[46],5%
same,inhibition,[47],8%
